Data published in ChEMBL document CHEMBL1821553, “Yojironins E-I, prenylated acylphloroglucinols from Hypericum yojiroanum” (Bioorg Med Chem Lett, 2011).
Values after ≈ are worked out from the molar mass of the structure shown.

Assays:
P388 = assay: Cytotoxicity against mouse P388 cells; assay type: functional, cell-based
Candida albicans = assay: Antimicrobial activity against Candida albicans; assay type: functional, organism-based
Cryptococcus neoformans = assay: Antimicrobial activity against Cryptococcus neoformans; assay type: functional, organism-based
KB = assay: Cytotoxicity against human KB cells; assay type: functional, cell-based
[1] = system: Trichophyton mentagrophytes; assay: Antimicrobial activity against Trichophyton mentagrophytes; assay type: functional, organism-based
Aspergillus niger = assay: Antimicrobial activity against Aspergillus niger; assay type: functional, organism-based

IC50 (Candida albicans): 4 µg/mL (≈ 9 µM)
IC50 (Cryptococcus neoformans): 4 µg/mL (≈ 9 µM)
IC50 [1]: 4 µg/mL (≈ 9 µM)
IC50 (Aspergillus niger): 16 µg/mL (≈ 36 µM)
Compound: CCC(C)C(=O)C1=C(O)C(C)=C2O[C@@H](C(C)(C)O)C[C@@]2(C/C=C(\C)CCC=C(C)C)C1=O (stereo partly specified) [YOJIRONIN E]
IC50 (P388): 3.7 µg/mL (≈ 8.32 µM)
IC50 (KB): 5 µg/mL (≈ 11.2 µM)
